Values quoted from earlier work in patent US20050238616A1, “Compositions for treatment of central nervous system neoplasms, and methods of making and using the same” (Guilford Pharmaceuticals, Inc., priority 2002, published 2005).

Test system: human glioma cell lines
Details: several human glioma cell lines in vitro

CC(=O)O[C@H]1C(=O)[C@@]2(C)[C@H]([C@H](OC(=O)c3ccccc3)[C@]3(O)C[C@H](OC(=O)[C@H](O)[C@@H](NC(=O)c4ccccc4)c4ccccc4)C(C)=C1C3(C)C)[C@]1(OC(C)=O)CO[C@@H]1C[C@@H]2O [paclitaxel]
LD90: 5 to 10 nM
